The values below come from patent US5414006A, “Arylalkoxythiocoumarins, the preparation thereof and therapeutic compositions containing these” (BASF Aktiengesellschaft, priority 1992, dated 1995).

SMILES strings stand for the structures.

One experiment has as its target T1, MAO A (Rattus norvegicus, UniProt P21396).
T1 construct: from tissue; host or cells: rat brain homogenate
T1 sequence (P21396 1-526): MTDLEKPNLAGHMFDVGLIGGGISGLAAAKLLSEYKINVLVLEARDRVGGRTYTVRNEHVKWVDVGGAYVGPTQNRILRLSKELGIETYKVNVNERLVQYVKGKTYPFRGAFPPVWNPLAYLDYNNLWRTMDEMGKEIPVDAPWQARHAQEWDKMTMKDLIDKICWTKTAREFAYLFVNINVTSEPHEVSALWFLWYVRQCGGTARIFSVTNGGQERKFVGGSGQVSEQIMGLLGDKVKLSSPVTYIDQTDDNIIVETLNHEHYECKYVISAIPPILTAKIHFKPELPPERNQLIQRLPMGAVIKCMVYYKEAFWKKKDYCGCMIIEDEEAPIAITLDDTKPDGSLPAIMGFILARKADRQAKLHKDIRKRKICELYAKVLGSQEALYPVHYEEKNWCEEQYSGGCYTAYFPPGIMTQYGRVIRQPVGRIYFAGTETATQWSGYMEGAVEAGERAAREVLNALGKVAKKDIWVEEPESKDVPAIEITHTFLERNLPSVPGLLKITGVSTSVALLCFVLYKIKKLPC
The experiment can be described thus: MAO A inhibition in dilute rat brain homogenate. In kind it is biochemical. Particulars: 14C-phenylethylamine or 14C-tryptamine 0.4 μmol/l, 37° C., 20 min. On the procedure: (§1) The MAO-inhibiting activity of the compounds according to the invention can be determined using standard methods. Thus, monoamine oxidases A and B were determined in dilute rat brain homogenate to which test substances in various concentrations and ^14 C-phenylethylamine or ^14 C-tryptamine in a concentration of 0.4 μmol/l were added. This mixture was incubated at 37° C. for 20 min.
(§2) The reaction was then stopped with 0.1 normal HCl, and the products were determined after extraction in a toluene scintillator (PPO+POPOP in toluene). The blank was determined on a similar mixture with an incubation time of 0 min.
(§3) The median inhibitory concentration (IC50) was calculated by linear regression after logit-log transformation from the values for the inhibition at the various concentrations relative to the control.

The next experiment has as its target T2, MAO B (Rattus norvegicus, UniProt P19643).
T2 construct: from tissue; host or cells: rat brain homogenate
T2 sequence (P19643 1-520): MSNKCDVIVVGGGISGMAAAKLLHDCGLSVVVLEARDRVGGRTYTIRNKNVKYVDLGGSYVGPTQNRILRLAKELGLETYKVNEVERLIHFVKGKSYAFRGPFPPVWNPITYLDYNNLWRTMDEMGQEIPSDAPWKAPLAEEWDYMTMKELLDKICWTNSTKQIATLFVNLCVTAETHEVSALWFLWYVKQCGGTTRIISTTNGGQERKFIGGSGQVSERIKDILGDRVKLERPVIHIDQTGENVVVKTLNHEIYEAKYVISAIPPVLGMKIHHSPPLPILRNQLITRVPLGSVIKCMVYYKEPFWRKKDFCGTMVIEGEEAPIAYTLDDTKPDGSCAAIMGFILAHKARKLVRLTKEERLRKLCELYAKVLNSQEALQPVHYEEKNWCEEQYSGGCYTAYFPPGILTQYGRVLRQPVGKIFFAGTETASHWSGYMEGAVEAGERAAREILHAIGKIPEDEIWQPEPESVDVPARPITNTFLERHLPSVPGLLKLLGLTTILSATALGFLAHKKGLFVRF
Description: MAO B inhibition in dilute rat brain homogenate. In kind it is biochemical. The conditions noted are these: 20 min; for IC50: dilute rat brain homogenate, 14C-phenylethylamine or 14C-tryptamine 0.4 μmol/l, 37° C.; for MAO A / MAO B IC50 ratio: selectivity for MAO B over MAO A, rat brain homogenate. On the procedure:
as §1, §2, §3

At MAO A, `Cc1c(C)c2cc(Cl)c(OCc3nnc(C4CC4)s3)cc2oc1=S` [Example 14, 6-Chloro-3,4-dimethyl-7-(2-cyclopropyl-1,3,4-thiadiazol-5-ylmethoxy)-2-thiocoumarin] came in with an IC50 of over 10000 nM. In addition, at MAO B, the IC50 stood at 6 nM and the “MAO A / MAO B IC50 ratio” value is over 1667.

The compound `CCCc1nnc(COc2ccc3c(C)c(C)c(=S)oc3c2)s1` [Example 4, 3,4-Dimethyl-7-(2-n-propyl-1,3,4-thiadiazol-5-ylmethoxy)-2-thiocoumarin] had an IC50 on MAO A of at least 10000 nM. Moreover, on MAO B, the IC50 stood at 2 nM and the “MAO A / MAO B IC50 ratio” value is reported as over 5000.

Take `Cc1c(C)c2ccc(OCc3nnc(C(C)C)s3)cc2oc1=S` [Example 1, 3,4-Dimethyl-7-(2-isopropyl-1,3,4-thiadiazol-5-ylmethoxy)-2-thiocoumarin]: the half-maximal inhibitory concentration (IC50) at MAO A is over 10000 nM. Moreover, on MAO B, half-maximal inhibition (IC50) required 1 nM and the “MAO A / MAO B IC50 ratio” value is > 10,000.

Regarding `Cc1nnc(COc2ccc3c(C)c(C)c(=S)oc3c2)o1` [Example 3, 3,4-Dimethyl-7-(2-methyl-1,3,4-oxadiazol-5-ylmethoxy)-2-thiocoumarin], the IC50 at MAO A is over 10000 nM. For the same compound, on MAO B, it took 10 nM to reach half-maximal inhibition (IC50) and the “MAO A / MAO B IC50 ratio” value is given as over 1000.

At MAO A, `CC(C)c1ccc(COc2ccc3ccc(=S)oc3c2)cc1` [Example 12, 7-(4-Isopropylbenzyloxy)-2-thiocoumarin] displayed a 50% inhibitory concentration (IC50) of at least 10000 nM. Further, on MAO B, inhibition was half-maximal at 3 nM (IC50) and the “MAO A / MAO B IC50 ratio” value is over 3333.

On to `Cc1c(C)c2cc(Cl)c(OCc3nnc(C(C)C)s3)cc2oc1=S` [Example 13, 6-Chloro-3,4-dimethyl-7-(2-isopropyl-1,3,4-thiadiazol-5-ylmethoxy)-2-thiocoumarin], for which the IC50 on MAO A was over 10000 nM. For the same compound, on MAO B, the 50% inhibitory concentration (IC50) amounted to 3 nM and the “MAO A / MAO B IC50 ratio” value is on record as over 3333.

The compound `Cc1c(C)c2ccc(OCc3csc(C(C)C)n3)cc2oc1=S` [Example 2, 3,4-Dimethyl-7-(2-isopropylthiazol-4-ylmethoxy)-2-thiocoumarin] gave an IC50 against MAO A of over 10000 nM. For the same compound, at MAO B, the IC50 turned out to be 3 nM and the “MAO A / MAO B IC50 ratio” value is recorded as over 3333.

A word on the IC50: it is the concentration that inhibits the measured activity by half. High values mean weaker potency, low ones greater potency.
